Key:
JAK2(h) = biological target: T1, JAK2(h) (Homo sapiens, UniProt O60674); assay: In vitro activity assay of JAK2 kinase (radiometric, [γ-33P]-ATP); type: biochemical; settings: recombinant human JAK2, 40 min at room temperature
T1 construct: purchased Eurofins, UK
Protocol: (§1) Recombinant human JAK1, JAK2, JAK3 and Tyk2 […], and main instruments and reagents were all provided by Eurofins, UK.
(§2) Dilution of JAK2, JAK3 and TYK2: 20 mM 3-(N-morpholino)propanesulfonic acid (MOPS), 1 mM EDTA, 0.01% Brij-35.5% glycerol, 0.1% β-mercaptoethanol, and 1 mg/mL BSA; dilution of JAK1: 20 mM TRIS, 0.2 mM EDTA, 0.1% β-mercaptoethanol, and 0.01% Brij-35.5% glycerol. All compounds were prepared as 100% DMSO solutions, and the concentration was brought to 50 times the final assay concentration. A test compound was diluted with a 3-fold gradient, with a total of 9 final concentrations ranging from 10 μM to […]. The DMSO content in the assay reaction was 2%. The working stock solution of the compound was added into the assay wells as a first component of the reaction, and the remaining components were then added according to the protocol detailed for the assay below.
JAK2(h) was incubated with 8 mM MOPS pH 7.0, 0.2 mM EDTA, 100 μM […] (SEQ ID NO: 2), 10 mM magnesium acetate and [γ-^33P]-ATP (the activity and concentration were tailored as required). The reaction was started by adding a Mg/ATP mixture, and terminated by adding 0.5% phosphoric acid after 40 min of incubation at room temperature. 10 μL of the reactant was then dotted on a P30 filter pad, washed three times with 0.425% phosphoric acid and once with methanol within 4 minutes, and dried, and scintillation counting was performed.
(§3) The IC50 results were obtained by analysis using XLFITS (formula 205) of IDBS company and detailed in Table 1.

JAK1(h) = biological target: T2, JAK1(h) (Homo sapiens, UniProt P23458); assay: In vitro activity assay of JAK1 kinase (radiometric, [γ-33P]-ATP); type: biochemical; settings: recombinant human JAK1, 40 min at room temperature
T2 construct: purchased Eurofins, UK
Protocol: as §1, §2
JAK1(h) was incubated with 20 mM Tris/HC pH 7.5, 0.2 mM EDTA, 500 μM MGEEPLYWSFPAKKK (SEQ ID NO: 1), 10 mM magnesium acetate and [γ-^33P]-ATP (the activity and concentration were tailored as required). The reaction was started by adding a Mg/ATP mixture, and terminated by adding 0.5% phosphoric acid after 40 min of incubation at room temperature. 10 μL of the reactant was then dotted on a P30 filter pad, washed three times with 0.425% phosphoric acid and once with methanol within 4 minutes, and dried, and scintillation counting was performed.
as §3

[1] = Pharmacokinetic (PK) experiment in rats; type: in vivo; settings: Sprague-Dawley (SD), rat, plasma, po, male SD rats; for AUC(0-inf) / Cmax / half-life: fasted, tail vein injection 1 mg/kg and gavage 5 mg/kg, route not given; for AUC(0-inf): read-out: AUC0-inf (area under plasma concentration-time curve from time 0 extrapolated to infinite time); for Cmax: read-out: Cmax (peak concentration); for half-life: read-out: T1/2 (half-life) (converted); for bioavailability: gavage 5 mg/kg vs tail vein injection 1 mg/kg
Protocol: A test compound was dissolved [5% DMSO, 95% (12% SBE-β-CD)] to give a clear solution, which was administered into male rats (SD) (overnight fasting, 7-8 weeks old) by tail vein injection and by gavage, respectively. After administration of the test compound, blood was collected from the mandibular vein and centrifuged to obtain plasma at 0.117, 0.333, 1, 2, 4, 7 and 24 h in the tail vein injection group (1 mg/kg), and at 0.25, 0.5, 1, 2, 4, 8 and 24 h in the gavage group (5 mg/kg). The plasma concentration was measured using LC-MS/MS method, and the relevant pharmacokinetic parameters were calculated using WinNonlin™ Version 6.3 pharmacokinetic software with non-compartmental model linear logarithmic trapezoidal method.

JAK3(h) = biological target: T3, JAK3(h) (Homo sapiens, UniProt P52333); assay: In vitro activity assay of JAK3 kinase (radiometric, [γ-33P]-ATP); type: biochemical; settings: recombinant human JAK3, 40 min at room temperature
T3 construct: purchased Eurofins, UK
T3 sequence (P52333 1-1124): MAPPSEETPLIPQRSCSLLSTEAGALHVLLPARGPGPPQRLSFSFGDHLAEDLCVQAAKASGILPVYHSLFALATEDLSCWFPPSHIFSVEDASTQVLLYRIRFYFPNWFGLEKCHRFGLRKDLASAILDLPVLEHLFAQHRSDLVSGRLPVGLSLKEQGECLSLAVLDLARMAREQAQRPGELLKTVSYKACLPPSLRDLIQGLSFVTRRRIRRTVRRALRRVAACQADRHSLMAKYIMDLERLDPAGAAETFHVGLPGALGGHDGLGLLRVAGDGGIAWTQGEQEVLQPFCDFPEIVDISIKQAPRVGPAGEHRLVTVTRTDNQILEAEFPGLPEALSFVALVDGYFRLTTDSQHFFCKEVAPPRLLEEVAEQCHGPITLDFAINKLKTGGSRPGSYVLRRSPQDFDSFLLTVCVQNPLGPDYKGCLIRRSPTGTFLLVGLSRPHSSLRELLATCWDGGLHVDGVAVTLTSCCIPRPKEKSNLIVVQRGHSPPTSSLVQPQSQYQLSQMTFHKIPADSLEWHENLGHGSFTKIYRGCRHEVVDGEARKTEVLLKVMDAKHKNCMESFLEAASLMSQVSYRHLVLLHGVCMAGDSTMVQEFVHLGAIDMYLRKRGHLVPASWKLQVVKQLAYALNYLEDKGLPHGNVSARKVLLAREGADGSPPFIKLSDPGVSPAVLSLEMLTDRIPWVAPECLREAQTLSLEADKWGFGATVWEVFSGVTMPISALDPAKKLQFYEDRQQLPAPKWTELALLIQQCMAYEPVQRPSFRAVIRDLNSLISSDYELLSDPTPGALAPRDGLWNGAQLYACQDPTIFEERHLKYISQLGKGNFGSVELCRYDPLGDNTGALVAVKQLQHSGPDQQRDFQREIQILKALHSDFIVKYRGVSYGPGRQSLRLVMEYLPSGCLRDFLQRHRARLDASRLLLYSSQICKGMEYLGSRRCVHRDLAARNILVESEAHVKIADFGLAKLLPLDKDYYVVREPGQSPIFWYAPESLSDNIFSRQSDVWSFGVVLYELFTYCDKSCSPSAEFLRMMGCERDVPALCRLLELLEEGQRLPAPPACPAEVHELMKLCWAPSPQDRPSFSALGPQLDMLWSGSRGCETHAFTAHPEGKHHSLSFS
Protocol: as §1, §2
JAK3(h) was incubated with 8 mM MOPS pH 7.0, 0.2 mM EDTA, 500 μM GGEEEEYFELVKKKK (SEQ ID NO: 3), 10 mM magnesium acetate and [γ-^33P]-ATP (the activity and concentration were tailored as required). The reaction was started by adding a Mg/ATP mixture, and terminated by adding 0.5% phosphoric acid after 40 min of incubation at room temperature. 10 μL of the reactant was then dotted on a P30 filter pad, washed three times with 0.425% phosphoric acid and once with methanol within 4 minutes, and dried, and scintillation counting was performed.
as §3

TYK2(h) = biological target: T4, TYK2(h) (Homo sapiens, UniProt P29597); assay: In vitro activity assay of TYK2 kinase (radiometric, [γ-33P]-ATP); type: biochemical; settings: recombinant human Tyk2, 40 min at room temperature
T4 construct: purchased Eurofins, UK
Protocol: as §1, §2
TYK2(h) was incubated with 8 mM MOPS pH 7.0, 0.2 mM EDTA, 250 μM GGMEDIYFEFMGGKKK (SEQ ID NO:4), 10 mM magnesium acetate and [γ-^33P]-ATP (the activity and concentration were tailored as required). The reaction was started by adding a Mg/ATP mixture, and terminated by adding 0.5% phosphoric acid after 40 min of incubation at room temperature. 10 μL of the reactant was then dotted on a P30 filter pad, washed three times with 0.425% phosphoric acid and once with methanol within 4 minutes, and dried, and scintillation counting was performed.
as §3

[2] = system: collagen-induced arthritis (CIA); assay: In vivo efficacy study of collagen-induced arthritis (CIA) in rats; parameters: species or system Lewis rats; settings: for Clinical score (on day 14 of administration) Mean ± SEM / Foot volume (mL, on day 14 of administration) Mean ± SEM: rat CIA
Protocol: [table] The compounds of the present application were tested for their therapeutic effect on arthritis using a rat collagen-induced arthritis model. Lewis rats were immunized. The day of the first immunization was recorded as day 0, and the subsequent days were recorded in order. The Lewis rats were anesthetized with isoflurane and injected with 50 μL of prepared collagen emulsion (containing 200 μg of CII) subcutaneously in the tail (2-3 cm away from the base of the tail). On day 21, the same volume of the collagen emulsion was injected in the tail in the same manner. Rats in the normal group were not immunized. On day 27 of the modeling, the rats were divided into groups and administered corresponding test compounds. For example, the female Lewis rats were orally administered different doses (see Table 4-1 for specific doses) of a solution of test compound 4 in a mixed solvent [0.5% HPMC E5/0.5% PVP K30/0.2% SLS in water] twice a day (8 test animals in each dose group). During 14 consecutive days of administration, the states of the rats were observed, and the foot volume swellings were recorded and scored.

[3] = system: adjuvant-induced arthritis (AIA); assay: In vivo efficacy study of adjuvant-induced arthritis (AIA) in rats; parameters: species or system female Lewis rats; settings: for Inhibition rate of area under clinical score curve, AUC (%): two weeks, rat AIA
Protocol: Experimental procedures: the compounds of the present application were tested for their therapeutic effect on arthritis using a rat adjuvant arthritis model. Female Lewis rats weighing 160-180 g were anesthetized with isoflurane and injected with 0.1 mL of Mycobacterium tuberculosis suspension subcutaneously in the left hind paw. 13 days after the modeling, the rats were divided into groups and given corresponding test compounds. For example, the female Lewis rats were orally administered different doses (see Table 3-2 for specific doses) of a solution of test compound 1A in a mixed solvent [5% DMSO, 95% (12% SBE-β-CD)] twice a day (10 test animals in each dose group). During two consecutive weeks of administration, the states of the rats were observed, and the foot volume swellings were recorded and scored.

T2 sequence (P23458 whole entry): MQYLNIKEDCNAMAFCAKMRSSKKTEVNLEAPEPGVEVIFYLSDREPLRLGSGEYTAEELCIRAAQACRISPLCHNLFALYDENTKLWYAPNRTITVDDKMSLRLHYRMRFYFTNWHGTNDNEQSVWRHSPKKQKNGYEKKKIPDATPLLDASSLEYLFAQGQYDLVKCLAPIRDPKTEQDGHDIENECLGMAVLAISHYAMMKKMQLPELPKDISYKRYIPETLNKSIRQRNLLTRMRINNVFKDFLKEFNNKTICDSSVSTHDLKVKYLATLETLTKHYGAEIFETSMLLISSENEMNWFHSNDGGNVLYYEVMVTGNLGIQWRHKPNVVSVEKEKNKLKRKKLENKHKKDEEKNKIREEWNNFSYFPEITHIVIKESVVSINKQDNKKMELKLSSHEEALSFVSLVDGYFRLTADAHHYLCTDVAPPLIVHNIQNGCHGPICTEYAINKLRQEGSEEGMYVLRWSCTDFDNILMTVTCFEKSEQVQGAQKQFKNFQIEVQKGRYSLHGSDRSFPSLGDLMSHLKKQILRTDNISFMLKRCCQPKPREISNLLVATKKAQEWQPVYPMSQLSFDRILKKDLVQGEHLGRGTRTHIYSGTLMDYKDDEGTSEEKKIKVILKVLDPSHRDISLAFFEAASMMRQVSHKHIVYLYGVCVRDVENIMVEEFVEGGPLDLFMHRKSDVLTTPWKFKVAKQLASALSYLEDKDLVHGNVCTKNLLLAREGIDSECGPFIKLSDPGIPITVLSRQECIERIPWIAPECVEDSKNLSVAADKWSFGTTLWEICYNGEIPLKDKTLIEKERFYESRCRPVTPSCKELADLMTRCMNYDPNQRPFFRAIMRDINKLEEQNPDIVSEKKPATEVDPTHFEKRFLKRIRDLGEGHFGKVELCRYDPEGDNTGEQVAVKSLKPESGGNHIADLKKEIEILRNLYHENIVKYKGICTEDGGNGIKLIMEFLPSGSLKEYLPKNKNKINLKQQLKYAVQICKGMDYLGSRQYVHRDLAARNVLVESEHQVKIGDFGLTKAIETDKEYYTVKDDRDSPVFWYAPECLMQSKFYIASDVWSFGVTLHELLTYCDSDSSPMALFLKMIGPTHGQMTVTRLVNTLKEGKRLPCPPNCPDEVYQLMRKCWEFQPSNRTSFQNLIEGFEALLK
T1 sequence (O60674 whole entry): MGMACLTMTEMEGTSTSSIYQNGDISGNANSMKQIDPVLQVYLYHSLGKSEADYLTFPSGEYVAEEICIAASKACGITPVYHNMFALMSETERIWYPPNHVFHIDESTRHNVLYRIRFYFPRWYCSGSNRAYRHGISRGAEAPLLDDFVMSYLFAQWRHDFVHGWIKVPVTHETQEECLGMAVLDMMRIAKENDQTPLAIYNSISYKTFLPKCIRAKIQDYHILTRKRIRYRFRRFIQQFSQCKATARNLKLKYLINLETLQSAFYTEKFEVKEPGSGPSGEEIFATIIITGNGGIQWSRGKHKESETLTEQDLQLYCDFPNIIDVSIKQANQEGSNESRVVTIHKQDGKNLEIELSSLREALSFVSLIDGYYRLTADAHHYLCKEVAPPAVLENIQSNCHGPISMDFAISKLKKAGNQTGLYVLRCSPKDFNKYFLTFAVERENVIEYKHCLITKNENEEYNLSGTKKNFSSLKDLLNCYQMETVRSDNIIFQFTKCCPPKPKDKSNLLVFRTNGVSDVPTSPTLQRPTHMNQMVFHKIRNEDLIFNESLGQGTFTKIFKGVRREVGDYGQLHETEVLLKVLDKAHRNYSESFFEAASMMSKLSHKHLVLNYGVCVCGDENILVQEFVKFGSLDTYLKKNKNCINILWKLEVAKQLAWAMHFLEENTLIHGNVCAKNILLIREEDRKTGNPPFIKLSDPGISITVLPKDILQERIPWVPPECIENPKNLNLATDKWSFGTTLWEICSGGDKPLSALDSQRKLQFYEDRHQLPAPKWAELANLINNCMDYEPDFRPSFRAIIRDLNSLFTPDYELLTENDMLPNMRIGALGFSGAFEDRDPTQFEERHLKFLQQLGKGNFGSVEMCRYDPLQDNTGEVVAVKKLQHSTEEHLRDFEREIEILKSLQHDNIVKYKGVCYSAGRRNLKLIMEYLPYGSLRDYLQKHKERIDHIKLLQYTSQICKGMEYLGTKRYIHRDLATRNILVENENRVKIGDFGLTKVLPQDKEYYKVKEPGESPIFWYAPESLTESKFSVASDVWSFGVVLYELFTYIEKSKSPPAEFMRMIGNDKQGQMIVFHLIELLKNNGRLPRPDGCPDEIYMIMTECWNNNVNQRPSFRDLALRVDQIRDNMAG
T4 sequence (P29597 whole entry): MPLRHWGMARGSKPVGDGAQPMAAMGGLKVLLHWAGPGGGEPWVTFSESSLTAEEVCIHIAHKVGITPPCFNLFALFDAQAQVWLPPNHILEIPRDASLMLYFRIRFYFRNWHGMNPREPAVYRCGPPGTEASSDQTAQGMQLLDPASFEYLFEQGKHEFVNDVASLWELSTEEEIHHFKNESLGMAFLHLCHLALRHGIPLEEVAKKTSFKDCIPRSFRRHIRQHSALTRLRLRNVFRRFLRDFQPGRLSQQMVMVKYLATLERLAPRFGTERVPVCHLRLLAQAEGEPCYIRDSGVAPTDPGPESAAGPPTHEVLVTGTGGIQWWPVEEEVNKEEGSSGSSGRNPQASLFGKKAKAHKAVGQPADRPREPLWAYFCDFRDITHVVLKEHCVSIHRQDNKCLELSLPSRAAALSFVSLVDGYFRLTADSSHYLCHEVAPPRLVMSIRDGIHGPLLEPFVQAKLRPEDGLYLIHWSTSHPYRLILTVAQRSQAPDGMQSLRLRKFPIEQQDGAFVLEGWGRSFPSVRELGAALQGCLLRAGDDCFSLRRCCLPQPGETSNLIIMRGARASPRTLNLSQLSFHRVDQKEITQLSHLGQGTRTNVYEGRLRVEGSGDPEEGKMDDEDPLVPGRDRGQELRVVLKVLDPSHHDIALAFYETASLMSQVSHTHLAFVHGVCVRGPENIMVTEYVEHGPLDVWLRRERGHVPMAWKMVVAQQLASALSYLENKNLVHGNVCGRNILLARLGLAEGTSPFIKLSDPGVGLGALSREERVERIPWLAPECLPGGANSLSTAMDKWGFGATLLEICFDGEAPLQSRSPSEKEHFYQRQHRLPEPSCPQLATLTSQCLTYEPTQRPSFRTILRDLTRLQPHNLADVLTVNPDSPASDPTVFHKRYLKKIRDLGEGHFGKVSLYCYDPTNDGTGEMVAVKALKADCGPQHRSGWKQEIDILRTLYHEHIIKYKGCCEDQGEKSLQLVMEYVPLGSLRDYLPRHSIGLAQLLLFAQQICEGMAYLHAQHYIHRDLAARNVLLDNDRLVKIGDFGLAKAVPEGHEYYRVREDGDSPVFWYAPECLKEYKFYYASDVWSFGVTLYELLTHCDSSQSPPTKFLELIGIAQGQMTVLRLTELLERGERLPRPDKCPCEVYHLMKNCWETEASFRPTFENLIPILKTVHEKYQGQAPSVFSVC

Row | SMILES | IC50 (JAK2(h)) [nM] | IC50 (JAK1(h)) [nM] | IC50 (JAK3(h)) [nM] | IC50 (TYK2(h)) [nM] | other results
1 | COc1nc2cnc3[nH]ccc3c2n1[C@@H]1CCc2cc(C#N)nn2C1 [Compound 4] | 7 | 0.9 | 27.3 | 50.3 | AUC(0-inf) [1]: 67.8 µM·h; Cmax [1]: 10.2 µM; half-life [1]: 219 min; bioavailability [1]: 119%; Clinical score (on day 14 of administration) Mean ± SEM ([2]; 1 mg/kg oral BID): 0.38 ± 0.16; Foot volume (mL, on day 14 of administration) Mean ± SEM ([2]; 1 mg/kg oral BID): 1.32 ± 0.04 mL; Body weight recovery ([2]; 3 mg/kg BID, end of administration at day 14): recovers to the level in the normal group; Foot volume (mL, on day 14 of administration) Mean ± SEM ([2]; 3 mg/kg oral BID): 1.28 mL; Degree of the foot volume swelling ([2]; BID at 1 and 3 mg/kg): reduced in a dose-dependent manner; Effect on clinical scores of the arthritic rats ([2]; BID at 1 and 3 mg/kg, significant difference from solvent control): reduces the clinical scores of the arthritic rats in a dose-dependent manner
2 | COc1nc2cnc3[nH]ccc3c2n1[C@H]1CCc2cc(C#N)nn2C1 [Compound 6] | 70.2 | 2.3 | 73.8 | 130 | 
3 | N#Cc1cc2n(n1)CC(n1c(C(F)(F)F)nc3cnc4[nH]ccc4c31)CC2 (single isomer, unassigned) [Compound 3A] | 62 | 3 | 217 | 57 | 
4 | C[C@@H](O)c1nc2cnc3[nH]ccc3c2n1[C@@H]1CCc2cc(C#N)nn2C1 [Compound 5] | 250 | 9 | 576 | 231 | 
5 | C[C@@H]1C[C@H]2[C@@H]3CCC4=CC(=O)C=C[C@]4(C)[C@@]3(F)[C@@H](O)C[C@]2(C)[C@@]1(O)C(=O)CO [Dexamethasone, reference compound] |  |  |  |  | Clinical score (on day 14 of administration) Mean ± SEM ([2]; 0.1 mg/kg): 0.00 ± 0.00; Foot volume (mL, on day 14 of administration) Mean ± SEM ([2]; 0.1 mg/kg): 1.22 ± 0.042 mL
6 | Cc1nc2cnc3[nH]ccc3c2n1C1CCc2cc(C#N)nn2C1 (single isomer, unassigned) [Compound 2A] | 2 | < 1 | 25 | 2 | 
7 | N#Cc1cc2n(n1)CC(n1cnc3cnc4[nH]ccc4c31)CC2 (single isomer, unassigned) [Compound 1A] | 27 | 1.3 | 30.8 | 35.8 | Inhibition rate of area under clinical score curve, AUC (%) ([3]; 3 mg/kg oral twice a day): 49.8%; Mean arthritis clinical score, peak ([3]; 10 mg/kg group, day 13 (day of grouping, start of dosing)): 5.8; Mean arthritis clinical score at the experimental endpoint ([3]; 10 mg/kg group, day 27): 1.3; Inhibition rate of area under clinical score curve, AUC (%) ([3]; 10 mg/kg oral twice a day): 60.3%; Effect on the downward trend of the weight in animals caused by the disease attack ([3]; 3 and 10 mg/kg groups, significant difference from solvent control from day 20): significant relieving effect on the downward trend of the weight; Effect on increase in arthritis clinical score and foot volume ([3]; 3 and 10 mg/kg oral twice a day, dose-dependent): inhibited the increase in arthritis clinical score and foot volume; AUC(0-inf) [1]: 8.51 µM·h; Cmax [1]: 2.94 µM; half-life [1]: 81 min; bioavailability [1]: 41.8%
8 | C[C@@H](O)c1nc2cnc3[nH]ccc3c2n1[C@H]1CCc2cc(C#N)nn2C1 [Compound 7] | 53.9 | 0.3 | 38.4 | 12.4 | 

Source: patent US20230017539A1, “TRI-HETEROCYCLIC COMPOUND AS JAK INHIBITOR, AND USE THEREOF” (CHIA TAI TIANQING PHARMACEUTICAL GROUP CO., LTD., priority 2019, published 2023)
